Results as given in US4345938A, “Herbicidal 2-haloacetanilides” (Monsanto Company, priority 1980, dated 1982).
≈ marks a conversion by molar mass, not a printed value.

Experiments:
Type in all cases: in vivo
[1] = system: redroot pigweed; assay: Sugarbeet greenhouse test, RRP; settings: in sugarbeets
From the text: (§1) In the discussion of data below, occasional reference is made to herbicide application rates symbolized as "GR15 " and "GR85 "; these rates are given in kilograms per hectare (kg/ha) which are convertible into pounds per acre (lbs/A) by dividing the kg/ha rate by 1.12.
(§2) A further guide to the effectiveness of a chemical as a selective herbicide is the "selectivity factor" ("SF") for a herbicide in given crops and weeds. The selectivity factor is a measure of the relative degree of crop safety and weed injury and is expressed in terms of the GR15 /GR85 ratio, i.e., the GR15 rate for the crop divided by the GR85 rate for the weed, both rates in kg/ha (lb/A.)
(§3) In further tests in the greenhouse, the compound of Example 2 was tested for its activity against annual weeds in sugarbeets at test rates within the range of 0.07 to 1.12 kg/ha (0.0625 to 1.0 lb/A). The GR15 and GR85 rates for sugarbeets and the various weeds are shown in Table VI; the selectivity factors for the herbicide against the weeds in sugarbeets are shown in parentheses below the weeds; "NS" means non-selective within the test limits. The following abbreviations are used in the table: barnyardgrass (BYG), wild oats (WO), downy brome (DB); redroot pigweed (RRP), blackgrass (BG), large crabgrass (LCG) and yellow foxtail (YFT).

[2] = system: Sugarbeets; assay: Sugarbeet greenhouse test, crop tolerance
Method: as §1, §3

[3] = system: wild oats; assay: Sugarbeet greenhouse test, WO; settings: in sugarbeets
From the text: as §1, §2, §3

[4] = system: blackgrass; assay: Sugarbeet greenhouse test, BG; settings: in sugarbeets
From the text: as §1, §2, §3

[5] = system: Crabgrass; assay: Pre-emergent herbicidal test, Crabgrass; settings: Table II; note: ranges in brackets are in %
From the text: (§4) A good grade of top soil is placed in aluminum pans and compacted to a depth of three-eights to one-half inch from the top of the pan. On the top of the soil is placed a number of seeds or vegetative propagules of various plant species. The soil required to level fill the pans after seeding or adding vegetative propagules is weighted into a pan. The soil and a known amount of the active ingredient applied in a solvent or as a wettable powder suspension are thoroughly mixed, and used to cover the prepared pans. After treatment, the pans are moved into a greenhouse bench where they are watered by subirrigation as needed to give adequate moisture for germination and growth.
(§5) Approximately 2 weeks after seeding and treating, the plants were observed and the results recorded. The herbicidal rating was obtained by means of a fixed scale based on the percent injury of each plant species. The ratings are defined as follows: […]
The compounds were further tested by utilizing the above procedure on the following plant species: […]

[6] = Fish toxicity (carp), Japanese protocol; settings: in vivo, carp (7 cm), read-out: TLM, Median Tolerance Limit (LC50)
Method: (§6) In view of the importance of fish toxicity considerations, tests were conducted with the compound of Example 1 on carp (7 cm) according to Japanese protocol; test data are shown in Table VII. Since U.S. Pat. No. 3,955,959 mentioned above discloses carp toxicity data for butachlor (Compound A) and terbuchlor (Compound C), also obtained according to Japanese protocol, the toxicity data in said U.S. Pat. No. 3,955,959 for these compounds is also presented in Table VII for comparative purposes.

[7] = system: Carp; assay: Fish toxicity (carp), Japanese protocol
Method: as §6

[8] = system: Canada Thistle; assay: Pre-emergent herbicidal test, Canada Thistle; settings: Table I; note: ranges in brackets are in %
From the text: as §4, §5

For `CCCCOc1cccc(CC)c1N(CC)C(=O)CCl` [Example 2, N-ethyl-2'-n-butoxy-6'-ethyl-2-chloroacetanilide], the “GR85 Rate, RRP” value [1] was > 1.12 Kg/Ha, the “selectivity factor, RRP” value [1] was “NS (non-selective within the test limits)” and the “GR15 Rate, Sugarbeets” value [2] was 0.56 Kg/Ha. For the same molecule, the “GR85 Rate, WO” value [3] was 0.28 Kg/Ha, the “selectivity factor, WO” value [3] was 2.0 and the “GR85 Rate, BG” value [4] was 0.21 Kg/Ha. The “selectivity factor, BG” value [4] was 2.7.

For `CCCCOc1cccc(CC)c1N(C)C(=O)CCl` [Example 1, N-methyl-2'-n-butoxy-6'-ethyl-2-chloroacetanilide], the “Rating, Crabgrass” value ([5]; 0.006 kg/h) was 1 (25-49), the “Rating, Crabgrass” value ([5]; 0.01 kg/h) was 3 (75-100) and the “Rating, Crabgrass” value ([5]; 0.06 kg/h) was 3 (75-100). For the same molecule, the “Rating, Crabgrass” value ([5]; 0.28 kg/h) was 3 (75-100), the “Rating, Crabgrass” value ([5]; 1.12 kg/h) was 3 (75-100) and the “Rating, Crabgrass” value ([5]; 5.6 kg/h) was 3 (75-100). The LC50 at 96 h ([6]; 96 Hours) was 2.4 µg/mL (≈ 8.46 µM), the LC50 at 48 h ([6]; 48 hours) was 3.2 µg/mL (≈ 11.3 µM) and the “expected fish kill relative to Compound A” value ([7]; at expected use rates, vs Compound A) was “only one-sixth”. For the same molecule, the “toxicity to carp relative to Compound A” value ([7]; vs Compound A) was “less than one-third as toxic”, the “toxicity to carp relative to Compound C” value ([7]; vs Compound C) was “almost one-half as toxic” and the “Rating, Canada Thistle” value ([8]; 5.6 kg/h) was 3 (75-100). For the same molecule, the “Rating, Canada Thistle” value ([8]; 11.2 kg/h) was 3 (75-100).
